ChEMBL document CHEMBL3779792, “Anti-proliferative evaluation of monoterpene derivatives against leukemia” (Eur J Med Chem, 2016)

Tests used:
[1] = system: Jurkat; test: Cytotoxicity against human Jurkat cells after 72 hrs by Cell-Titer Glo assay; assay type: functional, cell-based
[2] = system: BJ; test: Cytotoxicity against human BJ cells after 72 hrs by Cell-Titer Glo assay; assay type: cell-based
[3] = system: HEK293; test: Cytotoxicity against HEK293 cells after 72 hrs by Cell-Titer Glo assay; assay type: cell-based; details: Homo sapiens, HEK293, 72 h
[4] = Cytotoxicity against human SEM cells after 72 hrs by Cell-Titer Glo assay; assay type: functional, cell-based
[5] = system: Raji; test: Cytotoxicity against human Raji cells after 72 hrs by Cell-Titer Glo assay; assay type: functional, cell-based
[6] = Cytotoxicity against human NALM6 cells after 72 hrs by Cell-Titer Glo assay; assay type: functional, cell-based; details: NALM-6, 72 h
[7] = system: HepG2; test: Cytotoxicity against human HepG2 cells after 72 hrs by Cell-Titer Glo assay; assay type: functional, cell-based; details: HepG2, 72 h

Row | Structure (SMILES) | EC50 [1] | EC50 [2] | EC50 [3] | EC50 [4] | EC50 [5] | EC50 [6] | EC50 [7]
1 | C=C[C@@](C)(/C=C/c1ccc(O)c(/C=C/C(N)=O)c1)CCC=C(C)C | > 49 µM | > 36.6 µM | > 36.6 µM | > 36.6 µM | > 26 µM | > 43.5 µM | > 52.1 µM
2 | C=C[C@@](C)(/C=C/c1ccc(O)cc1)CCCO | > 49 µM | > 36.6 µM | > 36.6 µM | > 36.6 µM | > 26 µM | > 43.5 µM | > 52.1 µM
3 | C=C[C@@](C)(/C=C/c1ccc(OC)cc1)CCC=C(C)C | > 49 µM | > 36.6 µM | > 36.6 µM | > 36.6 µM | > 26 µM | > 43.5 µM | > 52.1 µM
4 | C=C[C@@](C)(/C=C/c1ccc(O)cc1)CC/C=C(C)/C=N/N | > 49 µM | > 36.6 µM | > 36.6 µM | > 36.6 µM | > 26 µM | > 43.5 µM | > 52.1 µM
5 | C=C[C@@](C)(/C=C/c1ccc(O)c(/C=C/C=C/c2ccccc2)c1)CCC=C(C)C | > 49 µM | > 36.6 µM | > 36.6 µM | > 15 µM | > 26 µM | > 43.5 µM | > 52.1 µM
6 | CCOc1ccc(/C=C/[C@@](C)(/C=C/c2ccc(O)cc2)CCC=C(C)C)cc1 | > 49 µM | > 36.6 µM | > 36.6 µM | > 36.6 µM | > 26 µM | > 43.5 µM | > 52.1 µM
7 | COc1ccc(/C=C/[C@@](C)(/C=C/c2ccc(O)c(/C=C/C#N)c2)CCC=C(C)C)cc1 | > 49 µM | > 23.7 µM | > 36.6 µM | 4.54 µM | > 26 µM | 16.5 µM | > 26 µM
8 | C=C[C@@](C)(/C=C/c1ccc(O)cc1)CC/C=C/C(=O)OCc1ccccc1 | > 49 µM | > 36.6 µM | > 36.6 µM | > 36.6 µM | > 26 µM | > 43.5 µM | > 52.1 µM
9 | C=C[C@](C)(CCCC(C)C)CCc1ccc(O)cc1 | > 49 µM | > 36.6 µM | > 36.6 µM | > 36.6 µM | > 26 µM | 27.5 µM | > 52.1 µM
10 | COc1ccc(/C=C/[C@@](C)(/C=C/c2ccc(O)c(/C=C/C(=O)OC(C)(C)C)c2)CCC=C(C)C)cc1 | > 49 µM | > 36.6 µM | > 36.6 µM | > 36.6 µM | > 26 µM | > 43.5 µM | > 52.1 µM
11 | C=C[C@@](C)(/C=C/c1ccc(O)c(/C=C/C(=O)OCc2ccccc2)c1)CCC=C(C)C | > 49 µM | > 36.6 µM | > 36.6 µM | > 36.6 µM | > 26 µM | > 43.5 µM | > 52.1 µM
12 | C=C[C@@](C)(/C=C/c1ccc(O)c(/C=C/c2ccc(F)cc2)c1)CCC=C(C)C | > 49 µM | > 36.6 µM | > 36.6 µM | > 36.6 µM | > 26 µM | > 43.5 µM | > 52.1 µM
13 | C=C[C@@](C)(/C=C/c1ccc(O)cc1)CCC=C(C)C [BAKUCHIOL] | > 49 µM | > 36.6 µM | > 36.6 µM | 15.3 µM | > 26 µM | 38 µM | > 52.1 µM
14 | C=C[C@@](C)(/C=C/c1ccc(O)c(CO)c1)CCC=C(C)C | > 49 µM | > 36.6 µM | > 36.6 µM | > 36.6 µM | > 26 µM | 16.4 µM | > 52.1 µM
15 | CCOC(=O)/C=C/c1cc(/C=C/[C@](C)(/C=C/c2ccc(OC)cc2)CCC=C(C)C)ccc1O | > 49 µM | > 36.6 µM | > 36.6 µM | > 36.6 µM | > 26 µM | > 43.5 µM | > 52.1 µM
16 | C=C[C@@](C)(/C=C/c1ccc(O)c(/C=C/c2ccc(Cl)cc2)c1)CCC=C(C)C | > 49 µM | > 36.6 µM | > 36.6 µM | > 36.6 µM | > 26 µM | > 43.5 µM | > 52.1 µM
17 | C=C[C@@](C)(/C=C/c1ccc(O)cc1)CC/C=C(C)/C=C/C(=O)OCc1ccccc1 | > 49 µM | > 36.6 µM | > 36.6 µM | > 36.6 µM | > 26 µM | 36 µM | > 52.1 µM
18 | C=C[C@@](C)(/C=C/c1ccc(O)cc1)CC/C=C(\C)C(=O)OCC | > 49 µM | > 36.6 µM | > 36.6 µM | > 36.6 µM | > 26 µM | > 43.5 µM | > 52.1 µM
19 | COc1ccc(/C=C/[C@@](C)(/C=C/c2ccc(O)c(/C=C/C(=O)c3ccccc3)c2)CCC=C(C)C)cc1 | > 49 µM | > 36.6 µM | > 36.6 µM | 30 µM | > 26 µM | > 43.5 µM | > 52.1 µM
20 | C=C[C@@](C)(/C=C/c1ccc(OCc2ccccc2)cc1)CCC=C(C)C | > 49 µM | > 36.6 µM | > 36.6 µM | > 36.6 µM | > 26 µM | > 43.5 µM | > 52.1 µM

Row | Structure (SMILES) | EC50 [1] | EC50 [2] | EC50 [3] | EC50 [4] | EC50 [5] | EC50 [6] | EC50 [7]
21 | C=C[C@@](C)(/C=C/c1ccc(O)c(/C=C(\C)C(=O)OCC)c1)CCC=C(C)C | > 49 µM | > 36.6 µM | > 36.6 µM | > 36.6 µM | > 26 µM | > 7.51 µM | > 52.1 µM
22 | C=C[C@@](C)(/C=C/c1ccc(O)c(C=O)c1)CCC=C(C)C | > 49 µM | > 36.6 µM | > 36.6 µM | 8.51 µM | > 26 µM | 11.2 µM | > 52.1 µM
23 | C=C[C@@](C)(/C=C/c1ccc(O)c(/C=C/C(=O)O)c1)CCC=C(C)C | > 49 µM | > 36.6 µM | > 36.6 µM | > 36.6 µM | > 26 µM | > 43.5 µM | > 52.1 µM
24 | COc1ccc(/C=C/[C@@](C)(/C=C/c2ccc(O)c(C=O)c2)CCC=C(C)C)cc1 | > 49 µM | 9.8 µM | 2.27 µM | 4.55 µM | 13 µM | > 43.5 µM | > 26 µM
25 | COc1ccc(/C=C/[C@@](C)(/C=C/c2ccc(O)cc2)CCC=C(C)C)cc1 | > 49 µM | > 36.6 µM | > 36.6 µM | > 36.6 µM | > 26 µM | > 43.5 µM | > 52.1 µM
26 | C=C[C@@](C)(/C=C/c1ccc(O)c(/C=C/C(=O)NCc2ccc(C(F)(F)F)cc2)c1)CCC=C(C)C | > 49 µM | > 36.6 µM | > 36.6 µM | > 36.6 µM | > 26 µM | > 43.5 µM | > 52.1 µM
27 | C=C[C@@](C)(/C=C/c1ccc(O)cc1)CCC=O | > 49 µM | > 36.6 µM | > 36.6 µM | > 36.6 µM | > 26 µM | > 43.5 µM | > 52.1 µM
28 | COc1ccc(/C=C/[C@@](C)(/C=C/c2ccc(O)c(/C=C/C(C)=O)c2)CCC=C(C)C)cc1 | > 49 µM | 12.3 µM | 14.6 µM | 8.67 µM | > 26 µM | > 43.5 µM | > 52.1 µM
29 | C=C[C@@](C)(/C=C/c1ccc(O)cc1)CCC1OC1(C)C (stereo partly drawn) | > 49 µM | > 36.6 µM | > 36.6 µM | > 36.6 µM | > 22.6 µM | > 43.5 µM | > 52.1 µM
30 | C=C[C@@](C)(/C=C/c1ccc(O)c(/C=C/C#N)c1)CCC=C(C)C | > 49 µM | > 36.6 µM | > 36.6 µM | > 36.6 µM | > 26 µM | > 43.5 µM | > 52.1 µM
31 | CCOC(=O)/C(C)=C/c1cc(/C=C/[C@](C)(/C=C/c2ccc(OC)cc2)CCC=C(C)C)ccc1O | > 49 µM | > 36.6 µM | > 36.6 µM | > 36.6 µM | > 26 µM | > 43.5 µM | > 52.1 µM
32 | C=C[C@@](C)(/C=C/c1ccc(O)c(/C=C/c2ccc(Cl)c(Cl)c2)c1)CCC=C(C)C | > 49 µM | > 13 µM | > 36.6 µM | > 7.51 µM | > 26 µM | 7.51 µM | > 52.1 µM
33 | C=C[C@@](C)(/C=C/c1ccc(O)cc1)CC/C=C/C#N | > 49 µM | > 36.6 µM | > 36.6 µM | > 36.6 µM | > 26 µM | > 43.5 µM | > 52.1 µM
34 | C=C[C@@](C)(/C=C/c1ccc(O)cc1)CC/C=C(C)/C=C/C(=O)OCC | > 49 µM | > 36.6 µM | > 36.6 µM | > 36.6 µM | > 26 µM | 0.815 µM | > 52.1 µM
35 | C=C[C@@](C)(/C=C/c1ccc(O)cc1)CC/C=C/C(=O)c1ccccc1 | > 49 µM | > 36.6 µM | > 36.6 µM | > 36.6 µM | > 26 µM | > 43.5 µM | > 52.1 µM
36 | C=C[C@@](C)(/C=C/c1ccc(O)cc1)CC/C=C/C(=O)OCC | > 49 µM | > 36.6 µM | > 36.6 µM | > 36.6 µM | > 26 µM | > 43.5 µM | > 52.1 µM
37 | C=C[C@@](C)(/C=C/c1ccc(O)cc1)CC/C=C(\C)C=O | > 49 µM | > 36.6 µM | > 36.6 µM | > 36.6 µM | > 26 µM | 12.6 µM | > 52.1 µM
38 | C=C[C@@](C)(/C=C/c1ccc(O)cc1)CC/C=C(\C)CO | > 49 µM | > 36.6 µM | > 36.6 µM | > 36.6 µM | > 26 µM | > 43.5 µM | > 52.1 µM
39 | C=C[C@@](C)(/C=C/c1ccc(OS(=O)(=O)c2ccc(C)cc2)cc1)CCC=C(C)C | > 49 µM | > 36.6 µM | > 36.6 µM | > 43.5 µM | > 26 µM | > 43.5 µM | > 52.1 µM
